Assay results as given in article PMC11259696, “Small molecule MarR modulators potentiate metronidazole antibiotic activity in aerobic E. coli by inducing activation by the nitroreductase NfsA” (The Journal of Biological Chemistry, 2024).
≈ marks a conversion by molar mass, not a printed value.

Assays:
MarR = molecular target: T1, MarR (Escherichia coli, UniProt P27245); assay: thermal shift assay with Kd (ΔTm […] °C); EMSA release of marO DNA (EC50 […]); assay type: binding
T1 construct: recombinant His-tagged MarR (pET15b, gene from BW25113)

E. coli ΔtolC = system: T2, E. coli ΔtolC; assay: microbe, parasite or virus in culture; set-up: resazurin microtiter MIC90 in CAMHB, aerobic, 2-fold dilutions, fluorescence; turnover below 10% of control; conditions: Escherichia coli, 5 h; MIC90, antibiotic alone, aerobic; read-out: MIC90 against E. coli ∆tolC under aerobic conditions (µg/mL) / Alone
T2 construct: BW25113 ΔtolC efflux-deficient tolC deletion strain
Experimental: The MIC was determined using the colorimetric resazurin microtiter assay. Experiments were performed in 96-well plate format with a 100 μl final volume. Briefly, a suspension of an E. coli strain of interest was prepared in CAMHB (BD) at an A600 of 0.001. When required, boosters or arabinose were added to the suspension, and MTZ or NFZ antibiotics were tested in a concentration gradient through serial 2-fold dilutions. After 5 h of incubation at 37 °C, 10 μl of resazurin 12.5% was added to each well, and an additional incubation was carried out for 1.5 h. Fluorescence was measured using a Fluostar Optima BMG Labtech (Ex: 530 nm; Em: 590 nm). Values were converted to resazurin turnover based on minimal (no bacteria added to the medium) and maximal (no antibiotic added) fluorescence values. MIC90 values were determined when resaruzin turnover was ˂10% of control.

NfsA [1] = molecular target: T3, NfsA (Escherichia coli, UniProt P17117); assay: EPR detection of MTZ radical anion formed by purified NfsA (1-electron reduction); NADPH consumption by UHPLC-MS; assay type: biochemical
T3 construct: recombinant His-tagged NfsA (pET28, gene from BW25113)
T3 sequence (P17117 1-240): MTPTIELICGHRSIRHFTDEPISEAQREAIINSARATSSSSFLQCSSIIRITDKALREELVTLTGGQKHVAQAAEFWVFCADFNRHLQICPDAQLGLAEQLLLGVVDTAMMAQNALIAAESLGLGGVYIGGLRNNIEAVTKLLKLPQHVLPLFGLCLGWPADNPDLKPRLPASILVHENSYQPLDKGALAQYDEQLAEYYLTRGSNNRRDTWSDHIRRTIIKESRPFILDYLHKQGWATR

NfsA [2] = molecular target: T3, NfsA; assay: UHPLC-MS of NADPH consumption and NADP+ production by purified NfsA; assay type: biochemical
NfsA [3] = molecular target: T3, NfsA; assay: UHPLC-MS turnover by purified NfsA with NADPH consumption and GSH trapping; assay type: biochemical
NfsA [4] = molecular target: T3, NfsA; assay: reduction by purified recombinant NfsA (2-electron reduction); assay type: biochemical
[5] = system: MarR (His-tagged) (Escherichia coli BW25113); assay: EMSA; conditions: EMSA: His-MarR 5 uM preincubated with BDM76441 15 min 25 C, then 100 nM marO 15 min 25 C (10 ul); 6% DNA retardation gel, 0.5x TBE, 150 V 45 min; binding …

T1 sequence (P27245 whole entry): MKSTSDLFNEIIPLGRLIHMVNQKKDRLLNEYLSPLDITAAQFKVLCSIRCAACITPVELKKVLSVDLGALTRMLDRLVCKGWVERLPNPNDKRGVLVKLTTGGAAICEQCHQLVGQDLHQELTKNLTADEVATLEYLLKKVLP

O=C(Nc1ccc(I)cc1C(=O)O)c1cccs1 [BDM76441]
Kd (MarR): 9.8 ± 1.6 µM

O=C(Cn1ccnc1[N+](=O)[O-])NCc1ccccc1 [Benznidazole]
MIC90 (E. coli ΔtolC): 62.5 µg/mL (≈ 240 µM)

Cc1ncc([N+](=O)[O-])n1C [Dimetridazole]
MIC90 (E. coli ΔtolC): > 500 µg/mL

Cc1ncc([N+](=O)[O-])n1CCO [MTZ, metronidazole]
MIC90 (E. coli ΔtolC): > 500 µg/mL
EPR detection of MTZ radical anion formed by purified NfsA (1-electron reduction) (NfsA [1]): these results confirmed the formation of MTZ radical anions by NfsA under aerobic conditions

NC(=O)C1=CN([C@@H]2O[C@H](COP(=O)(O)OP(=O)(O)OC[C@H]3O[C@@H](n4cnc5c(N)ncnc54)[C@H](OP(=O)(O)O)[C@@H]3O)[C@@H](O)[C@H]2O)C=CC1 [NADPH]
UHPLC-MS of NADPH consumption and NADP+ production by purified NfsA (NfsA [2]): rapid biotransformation of NFZ accompanied by a conversion of NADPH to NADP+ as measured by UHPLC-MS analysis

NC(=O)N/N=C/c1ccc([N+](=O)[O-])o1 [NFZ, nitrofurazone]
MIC90 (E. coli ΔtolC): 15.6 µg/mL (≈ 78.7 µM)
UHPLC-MS turnover by purified NfsA with NADPH consumption and GSH trapping (NfsA [3]): with purified recombinant NfsA, we observed a rapid biotransformation of NFZ accompanied by a conversion of NADPH to NADP+

O=[N+]([O-])c1cncn1CCN1CCOCC1 [Nimorazole]
MIC90 (E. coli ΔtolC): > 500 µg/mL

Cc1ncc([N+](=O)[O-])n1CC(O)CCl (centres unmarked) [Ornidazole]
MIC90 (E. coli ΔtolC): > 500 µg/mL

Cc1ncc([N+](=O)[O-])n1CC(C)O (centres unmarked) [Secnidazole]
MIC90 (E. coli ΔtolC): > 500 µg/mL

Cc1ncc([N+](=O)[O-])n1CCCO [Ternidazole]
MIC90 (E. coli ΔtolC): > 500 µg/mL

CC1=CC(=O)c2ccccc2C1=O [menadione]
reduction by purified recombinant NfsA (2-electron reduction) (NfsA [4]): confirmed that NfsA could reduce both menadione (2-electron reduction) and ferrocyanide (1-electron reduction)

marO (marRAB promoter PCR fragment)
IC50 [5]: 38 µM
